ChEMBL document CHEMBL5465560, “Selectivity Literature for EUbOPEN Chemogenomic Library” (2024)

Assays:
[1] = biological target: Cyclin-dependent kinase inhibitor 2A (Homo sapiens, UniProt P42771); assay: Selectivity interaction (Kinase panel (33PanQinase(R) Activity Assay)) EUB0000877a CDKN2A
[2] = biological target: T1, Serine/threonine-protein kinase Nek9 (Homo sapiens) (UniProt Q8TD19); assay: Selectivity interaction (Kinase panel (Invitrogen)) EUB0000639a NEK9; settings: at 200 nM
T1 sequence (whole entry): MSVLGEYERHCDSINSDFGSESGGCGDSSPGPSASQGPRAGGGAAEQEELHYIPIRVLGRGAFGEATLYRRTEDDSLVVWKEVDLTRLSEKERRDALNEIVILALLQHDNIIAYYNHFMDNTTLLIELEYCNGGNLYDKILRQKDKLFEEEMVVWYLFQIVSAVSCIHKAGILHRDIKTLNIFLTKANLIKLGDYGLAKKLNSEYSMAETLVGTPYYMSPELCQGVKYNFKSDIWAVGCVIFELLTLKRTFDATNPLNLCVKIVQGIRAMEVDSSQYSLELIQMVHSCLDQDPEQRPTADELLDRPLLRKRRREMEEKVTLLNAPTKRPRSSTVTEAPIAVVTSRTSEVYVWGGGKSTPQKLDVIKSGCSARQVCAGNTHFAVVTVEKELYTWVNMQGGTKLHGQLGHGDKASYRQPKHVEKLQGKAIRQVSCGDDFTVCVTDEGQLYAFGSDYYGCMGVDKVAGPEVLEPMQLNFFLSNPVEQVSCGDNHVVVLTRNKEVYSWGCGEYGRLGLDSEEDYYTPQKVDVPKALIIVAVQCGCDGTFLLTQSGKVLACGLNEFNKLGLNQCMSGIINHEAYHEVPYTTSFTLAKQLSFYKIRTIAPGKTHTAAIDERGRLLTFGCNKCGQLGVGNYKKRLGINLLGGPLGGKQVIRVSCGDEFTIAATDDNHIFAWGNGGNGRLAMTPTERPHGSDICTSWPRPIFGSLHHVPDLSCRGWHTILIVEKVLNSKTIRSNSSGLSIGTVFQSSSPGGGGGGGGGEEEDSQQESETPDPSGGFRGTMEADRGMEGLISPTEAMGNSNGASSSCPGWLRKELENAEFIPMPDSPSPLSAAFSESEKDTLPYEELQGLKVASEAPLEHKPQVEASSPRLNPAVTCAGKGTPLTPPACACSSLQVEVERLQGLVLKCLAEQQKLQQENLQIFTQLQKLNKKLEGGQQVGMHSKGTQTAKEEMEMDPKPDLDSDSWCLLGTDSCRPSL

[3] = biological target: T2, Activin receptor type-1 (Homo sapiens) (UniProt Q04771); assay: Selectivity interaction (Ambit KINOMEscan and KiNATiv profiling in Jurkat cells) EUB0000090b ACVR1; assay type: cell-based; settings: at 1 µM
T2 sequence (whole entry): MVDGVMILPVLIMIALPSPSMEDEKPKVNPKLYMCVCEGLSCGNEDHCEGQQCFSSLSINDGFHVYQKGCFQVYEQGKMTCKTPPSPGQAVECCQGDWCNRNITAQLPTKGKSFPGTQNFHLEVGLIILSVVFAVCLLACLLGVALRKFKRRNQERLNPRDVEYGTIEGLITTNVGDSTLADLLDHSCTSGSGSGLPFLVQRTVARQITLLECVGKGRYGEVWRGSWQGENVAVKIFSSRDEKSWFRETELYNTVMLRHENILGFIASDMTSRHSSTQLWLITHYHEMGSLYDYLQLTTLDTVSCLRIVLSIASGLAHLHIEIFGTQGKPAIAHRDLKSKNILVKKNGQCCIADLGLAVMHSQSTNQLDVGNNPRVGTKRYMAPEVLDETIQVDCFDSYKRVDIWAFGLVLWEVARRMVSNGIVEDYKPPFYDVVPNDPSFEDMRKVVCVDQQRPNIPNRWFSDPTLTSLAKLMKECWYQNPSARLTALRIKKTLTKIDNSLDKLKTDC

[4] = biological target: T3, Interleukin-1 receptor-associated kinase 4 (Homo sapiens) (UniProt Q9NWZ3); assay: Selectivity interaction (KinomeScan (DiscoverX)) EUB0000045b IRAK4
T3 sequence (whole entry): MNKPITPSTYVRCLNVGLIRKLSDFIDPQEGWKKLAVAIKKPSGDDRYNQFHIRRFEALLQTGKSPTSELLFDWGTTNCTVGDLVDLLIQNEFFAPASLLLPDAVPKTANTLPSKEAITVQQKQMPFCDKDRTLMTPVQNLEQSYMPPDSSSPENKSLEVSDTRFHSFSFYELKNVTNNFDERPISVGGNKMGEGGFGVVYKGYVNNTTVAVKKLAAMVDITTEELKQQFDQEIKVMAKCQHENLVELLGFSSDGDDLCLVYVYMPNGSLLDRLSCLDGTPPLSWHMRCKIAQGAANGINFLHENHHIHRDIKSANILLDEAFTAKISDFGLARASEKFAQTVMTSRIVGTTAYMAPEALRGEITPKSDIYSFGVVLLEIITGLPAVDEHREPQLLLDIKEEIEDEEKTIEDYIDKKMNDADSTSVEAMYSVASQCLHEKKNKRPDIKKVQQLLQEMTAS

[5] = biological target: T4, Serine/threonine-protein kinase 3 (Homo sapiens) (UniProt Q13188); assay: Selectivity interaction (KinomeScan (DiscoverX)) EUB0000045b STK3
T4 sequence (whole entry): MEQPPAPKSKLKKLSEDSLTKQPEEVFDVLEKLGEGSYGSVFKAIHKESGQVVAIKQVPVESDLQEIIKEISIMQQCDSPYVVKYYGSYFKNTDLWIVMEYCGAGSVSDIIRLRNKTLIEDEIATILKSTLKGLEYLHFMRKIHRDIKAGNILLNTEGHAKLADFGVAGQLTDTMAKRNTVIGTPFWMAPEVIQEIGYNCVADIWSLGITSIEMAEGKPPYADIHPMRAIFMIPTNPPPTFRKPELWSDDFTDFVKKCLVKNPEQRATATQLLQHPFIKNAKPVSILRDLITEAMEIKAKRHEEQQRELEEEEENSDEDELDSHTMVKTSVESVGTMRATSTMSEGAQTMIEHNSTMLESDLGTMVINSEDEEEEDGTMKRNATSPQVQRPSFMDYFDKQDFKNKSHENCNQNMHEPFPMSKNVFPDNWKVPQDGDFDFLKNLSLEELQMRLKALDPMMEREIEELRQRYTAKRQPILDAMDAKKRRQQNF

[6] = biological target: TRAF2 and NCK-interacting protein kinase (Homo sapiens) (UniProt Q9UKE5); assay: Selectivity interaction (KinomeScan (DiscoverX)) EUB0000655a TNIK; settings: at 10 µM
TRAF2 and NCK-interacting protein kinase (Homo sapiens), sequence (Q9UKE5 whole entry, looked up): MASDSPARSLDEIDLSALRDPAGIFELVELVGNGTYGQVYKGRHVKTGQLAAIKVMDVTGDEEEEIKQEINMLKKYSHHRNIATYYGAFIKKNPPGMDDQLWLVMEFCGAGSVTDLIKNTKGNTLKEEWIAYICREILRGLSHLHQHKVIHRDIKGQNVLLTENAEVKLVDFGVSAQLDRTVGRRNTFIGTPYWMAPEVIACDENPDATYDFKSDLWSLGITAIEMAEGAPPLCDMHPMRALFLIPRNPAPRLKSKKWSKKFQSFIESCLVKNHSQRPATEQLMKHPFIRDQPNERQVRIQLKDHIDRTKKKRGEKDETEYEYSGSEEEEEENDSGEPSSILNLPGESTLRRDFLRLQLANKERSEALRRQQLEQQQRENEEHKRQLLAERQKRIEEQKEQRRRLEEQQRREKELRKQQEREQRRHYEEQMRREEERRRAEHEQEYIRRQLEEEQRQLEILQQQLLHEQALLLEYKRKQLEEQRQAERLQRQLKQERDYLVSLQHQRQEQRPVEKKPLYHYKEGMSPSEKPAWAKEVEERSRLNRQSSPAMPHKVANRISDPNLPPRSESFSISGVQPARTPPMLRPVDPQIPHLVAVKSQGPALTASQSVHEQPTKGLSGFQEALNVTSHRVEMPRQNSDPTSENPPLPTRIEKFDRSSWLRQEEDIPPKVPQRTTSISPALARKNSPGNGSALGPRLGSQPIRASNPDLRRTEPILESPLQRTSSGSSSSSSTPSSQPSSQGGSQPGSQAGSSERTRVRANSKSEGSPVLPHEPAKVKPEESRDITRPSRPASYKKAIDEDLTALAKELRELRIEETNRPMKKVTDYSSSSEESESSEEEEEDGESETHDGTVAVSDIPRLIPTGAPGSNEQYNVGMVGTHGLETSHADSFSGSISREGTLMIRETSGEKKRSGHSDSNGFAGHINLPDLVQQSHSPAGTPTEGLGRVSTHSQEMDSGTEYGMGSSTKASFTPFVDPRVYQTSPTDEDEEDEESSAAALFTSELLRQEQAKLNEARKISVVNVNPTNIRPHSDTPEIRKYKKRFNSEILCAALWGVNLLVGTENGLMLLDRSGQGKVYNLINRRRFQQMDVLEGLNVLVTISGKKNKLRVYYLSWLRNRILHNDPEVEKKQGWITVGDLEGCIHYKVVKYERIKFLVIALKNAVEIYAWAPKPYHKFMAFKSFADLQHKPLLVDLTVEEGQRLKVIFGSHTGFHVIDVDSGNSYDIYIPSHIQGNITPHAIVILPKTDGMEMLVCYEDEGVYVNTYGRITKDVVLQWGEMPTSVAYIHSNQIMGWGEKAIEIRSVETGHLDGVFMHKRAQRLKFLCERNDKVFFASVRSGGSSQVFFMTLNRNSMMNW

Cyclin-dependent kinase inhibitor 2A, sequence (P42771 whole entry): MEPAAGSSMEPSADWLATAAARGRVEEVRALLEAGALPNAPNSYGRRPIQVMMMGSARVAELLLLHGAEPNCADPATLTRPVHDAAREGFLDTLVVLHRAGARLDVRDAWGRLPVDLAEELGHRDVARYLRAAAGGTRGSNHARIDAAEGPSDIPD

For CCC(=O)N1CC[C@H](Nc2ncnc3c2CN(c2cnc(OC)c(C(F)(F)F)c2)CC3)C1 [LENIOLISIB], the IC50 [1] was greater than 10 µM.

Work on CC[C@@H]1[C@H](F)C(=O)N[C@@H]1COc1nccc2cc(C(N)=O)c(OC)cc12 [ZIMLOVISERTIB] yielded a % of inhibition [2] of 2.82%.

With CN(C)C/C=C/C(=O)Nc1ccc(C(=O)N2CCCC(Nc3ncc(Cl)c(-c4c[nH]c5ccccc45)n3)C2)cc1 (stereo not drawn) the % of control [3] was 97%.

Molecule C=CC(=O)Nc1cc(-n2c(=O)ccc3cnc4ccc(-c5ccc(NS(C)(=O)=O)cc5)cc4c32)ccc1C has a % of control ([4]; at 1 µM) of 84%, a % of control ([4]; at 10 µM) of 100% and a % of control ([5]; at 1 µM) of 62%. For the same molecule, the % of control ([5]; at 10 µM) was 95%.

For CN(C)CCOc1ccc(-c2nc(-c3ccncc3)c(-c3ccc4c(c3)CC/C4=N\O)[nH]2)cc1, the % of control [6] was 12%.
